Data on two substances can be found in ChEMBL document CHEMBL4480451, “Novel nonapeptide GLP (28-36) amide derivatives with improved hypoglycemic and body weight lowering effects” (2019).

Assay [1] concerns Mus musculus. Put plainly: Hypoglycemic activity in ICR mouse assessed as plasma glucose level at 1 umol/kg, ip pretreated 30 mins prior to glucose challenge and measured at 15 mins post challenge by intraperitoneal glucose tolerance test (reference value: 15.3 +/- 1.2 mmol/L). Type of assay: functional.
In assay [2] the test system is Mus musculus. Nature of the assay: Hypoglycemic activity in ICR mouse assessed as reduction in plasma glucose AUC (0 to 120 mins) at 1 umol/kg, ip pretreated 30 mins prior to glucose challenge […] by intraperitoneal glucose tolerance test. Type of assay: functional, organism-based.
Assay [3] has as its system INS1. Nature of the assay: Cytoprotective activity against H2O2-induced oxidative stress-mediated cell death in rat INS-1 cells assessed as reduction in cell viability at 10 uM after 24 hrs by MTT assay (reference value: 37%). The class given is functional.
Assay [4] has as its system INS1. Nature of the assay: Cytoprotective activity against STZ-mediated cell death in rat INS-1 cells assessed as reduction in cell viability at 1 uM after 24 hrs by MTT assay (reference value: 50%). The class given is functional. On the technique in general: Tetrazolium dyes change colour on reduction, which living cells bring about.
For assay [5], the system named is INS1. Put plainly: Cytoprotective activity against STZ-mediated cell death in rat INS-1 cells assessed as reduction in cell viability at 10 uM after 24 hrs by MTT assay (reference value: 50%). Type of assay: functional.
The subject of assay [6] is INS1. Put plainly: Cytoprotective activity against glucolipotoxicity-mediated cell death in rat INS-1 cells assessed as reduction in cell viability at 10 uM after 24 hrs by MTT assay (reference value: 31%). Type of assay: functional.
Assay [7] relates to INS1. Nature of the assay: Cytoprotective activity against H2O2-induced oxidative stress-mediated cell death in rat INS-1 cells assessed as reduction in apoptotic cells at 0.1 to 10 uM after 24 hrs by Annexin V/propidium iodide staining-based flow cytometric analysis. The class given is functional. (Flow cytometry measures light scatter and fluorescence of single cells or particles in a stream.)

Assay [8] concerns INS1. Nature of the assay: Cytoprotective activity against STZ-mediated cell death in rat INS-1 cells assessed as reduction in apoptotic cells at 0.1 to 10 uM after 24 hrs by Annexin V/propidium iodide staining-based flow cytometric analysis. The class given is functional.
Assay [9] concerns INS1. Put plainly: Cytoprotective activity against glucolipotoxicity-mediated cell death in rat INS-1 cells assessed as reduction in apoptotic cells at 0.1 to 10 uM after 24 hrs by Annexin V/propidium iodide staining-based flow cytometric analysis. The class given is functional.
Assay [10] has as its system Mus musculus. Put plainly: Antidiabetic activity in STZ-induced diabetic ICR mouse model assessed as fasting blood glucose level at 0.1 umol/kg, ip for 5 consecutive days by glucometery (reference value: 17.7 +/- 1.1 mM). The class given is functional.
Assay [11] concerns Mus musculus. Put plainly: Antidiabetic activity in STZ-induced diabetic ICR mouse model assessed as fasting blood glucose level at 1 umol/kg, ip for 5 consecutive days by glucometery (reference value: 17.7 +/- 1.1 mM). Type of assay: functional.
The test system of assay [12] is Mus musculus. Put plainly: Antidiabetic activity in STZ-induced diabetic ICR mouse model assessed as fasting blood glucose level at 10 umol/kg, ip for 5 consecutive days by glucometery (reference value: 17.7 +/- 1.1 mM). The class given is functional.
Assay [13] relates to Mus musculus. Nature of the assay: Antiobesity activity in C57BL/6J mouse model of diet-induced obesity assessed as reduction in cumulative food intake at 1 umol/kg, ip qd for 4 weeks relative to control. The class given is functional. Also noted: scale not given: the % may be the effect or the level left.
Assay [14] has as its system Mus musculus. Put plainly: Antiobesity activity in C57BL/6J mouse model of diet-induced obesity assessed as reduction in body weight at 1 umol/kg, ip qd for 4 weeks. The class given is functional, organism-based.
The subject of assay [15] is Mus musculus. Nature of the assay: Antiobesity activity in C57BL/6J mouse model of diet-induced obesity assessed as increase in small brown adipocytes at 1 umol/kg, ip qd for 4 weeks by haematoxylin and eosin staining-based assay. Type of assay: functional, organism-based.
Assay [16] has as its system Mus musculus. Put plainly: Antiobesity activity in C57BL/6J mouse model of diet-induced obesity assessed as reduction in circulating leptin level at 1 umol/kg, ip qd for 4 weeks. The class given is functional, organism-based.
Assay [17] relates to Mus musculus. Put plainly: Antiobesity activity in C57BL/6J mouse model of diet-induced obesity assessed as reduction in ALT levels at 1 umol/kg, ip qd for 4 weeks. Type of assay: functional, organism-based.
In assay [18] the test system is Mus musculus. Nature of the assay: Antiobesity activity in C57BL/6J mouse model of diet-induced obesity assessed as reduction in AST levels at 1 umol/kg, ip qd for 4 weeks. The class given is functional, organism-based.
In assay [19] the test system is Mus musculus. Put plainly: Antiobesity activity in C57BL/6J mouse model of diet-induced obesity assessed as reduction in serum total cholesterol levels at 1 umol/kg, ip qd for 4 weeks. The class given is functional, organism-based.
Assay [20] concerns Mus musculus. Put plainly: Antiobesity activity in C57BL/6J mouse model of diet-induced obesity assessed as reduction in triglyceride levels at 1 umol/kg, ip qd for 4 weeks. Type of assay: functional, organism-based.
Assay [21] has as its system Mus musculus. Put plainly: Antiobesity activity in C57BL/6J mouse model of diet-induced obesity assessed as reduction in LDL/HDL levels at 1 umol/kg, ip qd for 4 weeks. Type of assay: functional, organism-based.
For assay [22], the system named is Mus musculus. Put plainly: Antidiabetic activity in STZ-induced diabetic ICR mouse model assessed as reduction in HbA1c level at 0.1 to 10 umol/kg, ip for 5 consecutive days. Type of assay: functional, organism-based.
The subject of assay [23] is Mus musculus. Put plainly: Antiobesity activity in C57BL/6J mouse model of diet-induced obesity assessed as reduction in circulating adiponectin level at 1 umol/kg, ip qd for 4 weeks. Type of assay: functional, organism-based.

Activity calls are given as the source filed them. No cut-off for these calls is given here.

Consider H-FIAWLVKGRKKK-NH2, for which the Activity in the assay with Mus musculus [1] is reported as 10.8 mmol/L; with INS1 [3], 17%; with INS1 [4], 36%; in the assay with INS1 [5], 29%; with INS1 [6], 21%; with Mus musculus [10], 16.5 mM. Also, the Activity with Mus musculus [11] came to 14.9 mM; with Mus musculus [12], 15.03 mM; with Mus musculus [13] it was 12.7%. Further, the result in the assay on Mus musculus [2], in the assay on INS1 [7], in the assay with INS1 [8], in the assay with INS1 [9], in the assay on Mus musculus [14] and in the assay with Mus musculus [15] was Active. The outcome in the assay with Mus musculus [17], in the assay with Mus musculus [18], in the assay on Mus musculus [19] and in the assay with Mus musculus [20] was Active. The outcome with Mus musculus [16], in the assay with Mus musculus [21], in the assay with Mus musculus [22] and in the assay with Mus musculus [23] was inactive.
With H-FIAWLVKGRKKKKKK-NH2, in the assay on Mus musculus [1], the Activity is 11.9 mmol/L. Further, in the assay with Mus musculus [2], the outcome was Active.
